According to PMC10318527, “Utilization of dietary mixed-linkage β-glucans by the Firmicute Blautia producta” (The Journal of Biological Chemistry, 2023):
Entries after “also recorded” stand apart in the source; their conditions may differ.

Tests used:
BPGH16 mutant L358A = assay: Kinetics of BPGH16 mutant L358A (DNS assay); format: biochemical, Blautia producta ATCC 27340
Procedure: The residues R331, L358, E379, D381, E384, W362, and H398 of BpGH16MLG were mutated to Ala by the Q5Site-Directed Mutagenesis Kit (New England Biolabs, UK, catalogue no. E0554S). Wild-type plasmid BpGH16-pET28a(+) was used as a template, and mutagenic forward and reverse primers were developed using NEBaseChanger with subtle modifications (Table S4). A 25 μl PCR cocktail was prepared for mutating each residue. The final concentration of Q5 Hot Start High-Fidelity 2X Master Mix was 1X, each primer was at 0.5 μM, the amount of used template was 20 ng, and the rest of the volume was made up of nuclease-free water. PCR was executed using the following conditions-initial denaturation was performed at 98 °C for 1 min, for each cycle-denaturation, annealing, and extension (72 °C) were set for 10 s, 20 s, and 7 min, respectively. […] The mutant protein was then expressed as per the protocol mentioned earlier, and kinetics were performed with barley β-glucan.
Reactions were performed in 100 μl volume mixture using recombinant enzyme (final concentration at 0.1 mg/ml) in 50 mM sodium phosphate buffer (pH 5.7) at 37 °C for 1 h of incubation. […] Enzymatic assays were determined with 3,5- dinitrosalicylic acid (DNS) assay ([85]). […] Consequently, recorded the developed color spectrophotometrically at 575 nm ([85]). […]

BpGH94MLG = molecular target: T1, BpGH94MLG (Blautia producta, UniProt A0A7G5MNS2); assay: Phosphorolysis activity of BpGH94MLG on substrates (TLC); format: biochemical, Blautia producta ATCC 27340; conditions: inorganic phosphate, 37 °C
T1 sequence (A0A7G5MNS2 1-804): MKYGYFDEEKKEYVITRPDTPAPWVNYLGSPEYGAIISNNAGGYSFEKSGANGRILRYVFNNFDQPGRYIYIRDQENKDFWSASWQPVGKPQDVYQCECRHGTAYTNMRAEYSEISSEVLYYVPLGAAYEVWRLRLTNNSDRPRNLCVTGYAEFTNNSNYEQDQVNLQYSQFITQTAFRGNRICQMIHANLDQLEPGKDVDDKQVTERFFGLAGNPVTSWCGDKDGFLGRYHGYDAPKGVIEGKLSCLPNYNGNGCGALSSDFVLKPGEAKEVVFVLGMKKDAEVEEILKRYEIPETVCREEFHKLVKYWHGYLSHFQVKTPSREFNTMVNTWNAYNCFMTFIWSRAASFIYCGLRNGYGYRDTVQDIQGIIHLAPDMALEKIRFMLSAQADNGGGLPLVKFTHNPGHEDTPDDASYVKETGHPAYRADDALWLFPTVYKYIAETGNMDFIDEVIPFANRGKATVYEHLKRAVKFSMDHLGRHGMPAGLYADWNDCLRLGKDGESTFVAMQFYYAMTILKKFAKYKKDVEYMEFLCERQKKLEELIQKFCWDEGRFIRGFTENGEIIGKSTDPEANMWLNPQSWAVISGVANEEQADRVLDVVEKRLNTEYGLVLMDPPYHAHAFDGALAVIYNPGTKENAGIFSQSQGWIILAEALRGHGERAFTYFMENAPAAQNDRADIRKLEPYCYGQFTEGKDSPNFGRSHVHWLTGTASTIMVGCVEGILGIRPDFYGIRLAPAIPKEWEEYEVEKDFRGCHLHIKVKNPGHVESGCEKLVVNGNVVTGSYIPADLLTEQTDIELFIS
Procedure: TLC was used for analyzing enzymatic actions. […] Kinetics parameters for BpGH94MLG were determined with G4G3G, G4G4G3G and cellotriose, following a p-hydroxybenzoic acid hydrazide (PAHBAH) reducing sugar assay ([69]).

B. producta ΔSBP = assay: Growth of B. producta ΔSBP mutant on barley β-glucan; format: cell-based, Blautia producta; conditions: minimal medium containing 1% barley β-glucan
Procedure: The pBS423-ΔrepA- Δsbp was constructed by inserting 905 bp 5' and 1151 bp 3' flanking regions but lacking 1.2 kb core region of BpSBPMLG. It was inserted between Pst1 sites of the vector. GenScript Biotech (Singapore) PTE LTD carried out synthesis of the 2.2 kb flanking region and insertion into pBS423-ΔrepA. Competent cells of B. producta were prepared after inoculating 1 % primary culture into 300 ml GAM containing glucose (0.2%), sucrose (0.5 M), and glycine (1%). It was incubated until A600 reached 0.5-0.7 at 37 °C under anaerobic conditions. Afterward, cultures were transferred into 50 ml centrifuge tubes and centrifuged at 3000 × g for 20 min. The supernatant was discarded, and pellets were washed three times with washing solution (0.5 M sucrose and 10% glycerol) and stored at -80°C in aliquots of 50 µl.
The first cross-over event for knocking out was achieved by integrating 0.2 to 1 µg pBS423-ΔrepA- Δsbp in 50 µl competent cells of B. producta through electroporation using a condition of 25 µF, 2.0 kV, and 200 Ω. Gene Pulser Xcell (Bio-Rad Laboratories, Hercules, CA, USA) was used for this purpose. The treated cells were instantly mixed with 1 ml anaerobically pre-incubated GAM medium containing 0.2 % glucose, 0.5 M sucrose, 1 % glycine, 20 mM MgCl2.6H2O, and 2 mM CaCl2. […]

Barley β-glucan
kcat (BPGH16 mutant L358A): 0 s⁻¹
phosphorolysis activity of BpGH94MLG (in words) (BpGH94MLG): catalyzed phosphorolysis
growth of B. producta ΔSBP compared to wild-type strain (B. producta ΔSBP): significant retardation in growth; also recorded: retarded growth
